Values of other authors as cited in patent US7141382B1, “Methods for detection of IL-18 as an early marker for diagnosis of acute renal failure and predictor of mortality” (priority 2004, dated 2006).
Read-outs that look alike come from different tables or passages of the source.

System: freshly isolated proximal tubules from C57BL/6 mice
Settings: P<0.01 vs. hypoxia, n=6

| Compound | LDH release (25 minutes of hypoxic injury, hypoxic tubules preincubated with OPH-001 (100 μM), normoxic 11%±1%, vehicle (DMSO) 38%±6%) | LDH release (sublethal (12 minutes) hypoxia, tubules preincubated with recombinant IL-18 (1 μg per 6 ml of tubule suspension), normoxic 10%±1%, vehicle (saline) 13%±1%) |
| --- | --- | --- |
| CC(C)[C@H](NC(=O)c1ccc2ccccc2n1)C(=O)N[C@@H](CC(=O)O)C(=O)COc1c(F)cccc1F [OPH-001] | 22%±1% | – |
| recombinant IL-18: exogenous recombinant IL-18 added to the proximal tubule suspension | – | 18%±1% |
